Results: PubChem BioAssay (NCI)
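Growth conditions: 96-well plates. Treatment: test compound, 48 hours, 5 concentrations. Analysis: linear interpolation between bracketing concentrations; unreached endpoints set to highest concentration. The concentration for 50% growth inhibition is given as GI50. TGI marks complete inhibition of growth.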

Experiments:
Experiment in all cases: NCI tumour cell line growth inhibition, 48 h
MALME-3M melanoma = system: MALME-3M melanoma
SF-539 CNS = system: SF-539 CNS
ACHN renal = system: ACHN renal
OVCAR-8 ovarian = system: OVCAR-8 ovarian
U251 CNS = system: U251 CNS
SNB-75 CNS = system: SNB-75 CNS
RPMI-8226 leukemia = system: RPMI-8226 leukemia
COLO 205 colon = system: COLO 205 colon
NCI-H522 lung = system: NCI-H522 lung
A498 renal = system: A498 renal
CCRF-CEM leukemia = system: CCRF-CEM leukemia
A549 NSCLC = system: A549 NSCLC
OVCAR-4 ovarian = system: OVCAR-4 ovarian
NCI-H460 lung = system: NCI-H460 lung
RXF 393 renal = system: RXF 393 renal
HT29 colon = system: HT29 colon
M14 melanoma = system: M14 melanoma
MDA-MB-468 breast = system: MDA-MB-468 breast
SK-OV-3 ovarian = system: SK-OV-3 ovarian
786-0 renal = system: 786-0 renal
IGROV1 ovarian = system: IGROV1 ovarian
SR leukemia = system: SR leukemia
EKVX NSCLC = system: EKVX NSCLC
MDA-MB-231 breast = system: MDA-MB-231 breast
PC-3 prostate = system: PC-3 prostate
HOP-62 NSCLC = system: HOP-62 NSCLC
SN12C renal = system: SN12C renal
SK-MEL-2 melanoma = system: SK-MEL-2 melanoma
SW-620 colon = system: SW-620 colon
DU-145 prostate = system: DU-145 prostate
HL-60(TB) leukemia = system: HL-60(TB) leukemia
UACC-62 melanoma = system: UACC-62 melanoma
LOX IMVI melanoma = system: LOX IMVI melanoma
KM12 colon = system: KM12 colon
BT-549 breast = system: BT-549 breast
HCT-116 colon = system: HCT-116 colon
CAKI-1 renal = system: CAKI-1 renal
MCF7 breast = system: MCF7 breast
UO-31 renal = system: UO-31 renal
SNB-19 CNS = system: SNB-19 CNS
OVCAR-3 ovarian = system: OVCAR-3 ovarian
SF-268 CNS = system: SF-268 CNS
SF-295 CNS = system: SF-295 CNS
HS 578T breast = system: HS 578T breast
HCT-15 colon = system: HCT-15 colon
SK-MEL-5 melanoma = system: SK-MEL-5 melanoma
HCC-2998 colon = system: HCC-2998 colon
NCI-H226 lung = system: NCI-H226 lung
MDA-MB-435 = system: MDA-MB-435
SK-MEL-28 melanoma = system: SK-MEL-28 melanoma
MOLT-4 leukemia = system: MOLT-4 leukemia
OVCAR-5 ovarian = system: OVCAR-5 ovarian
HOP-92 NSCLC = system: HOP-92 NSCLC
NCI-H23 lung = system: NCI-H23 lung
K-562 leukemia = system: K-562 leukemia
TK-10 renal = system: TK-10 renal
T-47D breast = system: T-47D breast
UACC-257 melanoma = system: UACC-257 melanoma

## O=C(c1ccc(O)cc1)C1[C@H](c2ccccc2Br)[C@@H](c2ccccc2)NC12C(=O)Nc1ccc(Cl)cc12 (some centres not stated)
MALME-3M melanoma
  GI50: 7.89 µM
  TGI: 15.3 µM
SF-539 CNS
  GI50: 6.11 µM
  TGI: 12.8 µM
ACHN renal
  GI50: 5.39 µM
  TGI: 11.8 µM
OVCAR-8 ovarian
  GI50: 6.72 µM
  TGI: 14.6 µM
U251 CNS
  GI50: 3.46 µM
  TGI: 10.8 µM
SNB-75 CNS
  GI50: 1.44 µM
  TGI: 8.12 µM
RPMI-8226 leukemia
  GI50: 3.29 µM
  TGI: 43.8 µM
COLO 205 colon
  GI50: 7.35 µM
  TGI: 15.7 µM
NCI-H522 lung
  GI50: 2.23 µM
  TGI: 8.45 µM
A498 renal
  GI50: 6.57 µM
  TGI: 13.9 µM
CCRF-CEM leukemia
  GI50: 3.49 µM
  TGI: 16.5 µM
A549 NSCLC
  GI50: 3.43 µM
  TGI: 11.2 µM
OVCAR-4 ovarian
  GI50: 4.69 µM
  TGI: 13.7 µM
NCI-H460 lung
  GI50: 4.72 µM
  TGI: 12.7 µM
RXF 393 renal
  GI50: 2.86 µM
  TGI: 10.5 µM
HT29 colon
  GI50: 7.36 µM
  TGI: 17.9 µM
M14 melanoma
  GI50: 4.77 µM
  TGI: 12.4 µM
MDA-MB-468 breast
  GI50: 1.61 µM
  TGI: 6.96 µM
SK-OV-3 ovarian
  GI50: 7.69 µM
  TGI: 15.4 µM
786-0 renal
  GI50: 6.57 µM
  TGI: 13.7 µM
IGROV1 ovarian
  GI50: 2.3 µM
  TGI: 9.11 µM
SR leukemia
  GI50: 2.01 µM
  TGI: 9.34 µM
EKVX NSCLC
  GI50: 6.65 µM
  TGI: 15.4 µM
MDA-MB-231 breast
  GI50: 4.68 µM
  TGI: 11.8 µM
PC-3 prostate
  GI50: 2.8 µM
  TGI: 11.3 µM
HOP-62 NSCLC
  GI50: 7.08 µM
  TGI: 14.9 µM
SN12C renal
  GI50: 1.7 µM
  TGI: 6.32 µM
SK-MEL-2 melanoma
  GI50: 6.49 µM
  TGI: 13.8 µM
SW-620 colon
  GI50: 6.73 µM
  TGI: 14.8 µM
DU-145 prostate
  GI50: 8.01 µM
  TGI: 16.5 µM
HL-60(TB) leukemia
  GI50: 5.86 µM
  TGI: 20.3 µM
UACC-62 melanoma
  GI50: 5.71 µM
  TGI: 12.2 µM
LOX IMVI melanoma
  GI50: 5.53 µM
  TGI: 13.1 µM
KM12 colon
  GI50: 2.91 µM
  TGI: 11.1 µM
BT-549 breast
  GI50: 2.19 µM
  TGI: 9.37 µM
HCT-116 colon
  GI50: 4.12 µM
  TGI: 11.4 µM
CAKI-1 renal
  GI50: 2 µM
  TGI: 8.85 µM
MCF7 breast
  GI50: 3.17 µM
  TGI: 13.7 µM
UO-31 renal
  GI50: 3.26 µM
  TGI: 10.9 µM
SNB-19 CNS
  GI50: 5.97 µM
  TGI: 12.6 µM
OVCAR-3 ovarian
  GI50: 2.76 µM
  TGI: 9.34 µM
SF-268 CNS
  GI50: 3.99 µM
  TGI: 13.4 µM
SF-295 CNS
  GI50: 4.98 µM
  TGI: 12.5 µM
HS 578T breast
  GI50: 6.2 µM
  TGI: 22.6 µM
HCT-15 colon
  GI50: 6.63 µM
  TGI: 16.1 µM
SK-MEL-5 melanoma
  GI50: 8.68 µM
  TGI: 16.8 µM
HCC-2998 colon
  GI50: 2.42 µM
  TGI: 9.01 µM
NCI-H226 lung
  GI50: 1.57 µM
  TGI: 6.22 µM
MDA-MB-435
  GI50: 4.78 µM
  TGI: 12.9 µM
SK-MEL-28 melanoma
  GI50: 7.51 µM
  TGI: 14.7 µM
MOLT-4 leukemia
  GI50: 2.2 µM
  TGI: 11.4 µM
OVCAR-5 ovarian
  GI50: 6.25 µM
  TGI: 13 µM
HOP-92 NSCLC
  GI50: 3.03 µM
  TGI: 11.6 µM
NCI-H23 lung
  GI50: 6.65 µM
  TGI: 14.4 µM
K-562 leukemia
  GI50: 3.75 µM
  TGI: 17.9 µM
TK-10 renal
  GI50: 7.76 µM
  TGI: 16 µM
T-47D breast
  GI50: 5.51 µM
  TGI: 14.9 µM
UACC-257 melanoma
  GI50: 6.51 µM
  TGI: 13.5 µM

## CC1=C(COCCOC(=O)c2ccc(S(=O)(=O)F)cc2)C2=C(C)C3(CC3)[C@@](C)(O)C(=O)C2=C1
MALME-3M melanoma
  GI50: 16 µM
  TGI: 30.8 µM
SF-539 CNS
  GI50: 17.7 µM
  TGI: 33.9 µM
ACHN renal
  GI50: 21.7 µM
  TGI: 49.9 µM
OVCAR-8 ovarian
  GI50: 18.9 µM
  TGI: 40.1 µM
U251 CNS
  GI50: 18.1 µM
  TGI: 37.3 µM
SNB-75 CNS
  GI50: 16.3 µM
  TGI: 49.7 µM
RPMI-8226 leukemia
  GI50: 26 µM
  TGI: 69.4 µM
COLO 205 colon
  GI50: 19.6 µM
  TGI: 37.2 µM
NCI-H522 lung
  GI50: 16 µM
  TGI: 30.9 µM
A498 renal
  GI50: 18.6 µM
  TGI: 43.7 µM
CCRF-CEM leukemia
  GI50: 21.4 µM
  TGI: 52.3 µM
A549 NSCLC
  GI50: 25.9 µM
  TGI: 80.8 µM
OVCAR-4 ovarian
  GI50: 20.1 µM
  TGI: 48.4 µM
NCI-H460 lung
  GI50: 21.6 µM
  TGI: 45.8 µM
RXF 393 renal
  GI50: 17.5 µM
  TGI: 34.8 µM
HT29 colon
  GI50: 18.4 µM
  TGI: 35.9 µM
M14 melanoma
  GI50: 18.9 µM
  TGI: 36.9 µM
MDA-MB-468 breast
  GI50: 18.7 µM
  TGI: 40.1 µM
SK-OV-3 ovarian
  GI50: 18.6 µM
  TGI: 39.5 µM
786-0 renal
  GI50: 19 µM
  TGI: 42.3 µM
IGROV1 ovarian
  GI50: 17 µM
  TGI: 32.4 µM
SR leukemia
  GI50: 22.5 µM
  TGI: 56.2 µM
EKVX NSCLC
  GI50: 17.5 µM
  TGI: 33.8 µM
MDA-MB-231 breast
  GI50: 17.7 µM
  TGI: 34.2 µM
PC-3 prostate
  GI50: 19.8 µM
  TGI: 51.3 µM
HOP-62 NSCLC
  GI50: 21.6 µM
  TGI: 58.2 µM
SN12C renal
  GI50: 16.6 µM
  TGI: 30.4 µM
SK-MEL-2 melanoma
  GI50: 17.9 µM
  TGI: 35.3 µM
SW-620 colon
  GI50: 17.5 µM
  TGI: 33.9 µM
DU-145 prostate
  GI50: 24.1 µM
  TGI: 57.2 µM
HL-60(TB) leukemia
  GI50: 24.3 µM
  TGI: 55.1 µM
UACC-62 melanoma
  GI50: 16.2 µM
  TGI: 30.2 µM
LOX IMVI melanoma
  GI50: 17.8 µM
  TGI: 34.6 µM
KM12 colon
  GI50: 23.6 µM
  TGI: 53.8 µM
BT-549 breast
  GI50: 14.9 µM
  TGI: 32.2 µM
HCT-116 colon
  GI50: 16.7 µM
  TGI: 32.4 µM
CAKI-1 renal
  GI50: 16 µM
  TGI: 32.5 µM
MCF7 breast
  GI50: 27 µM
  TGI: 91.2 µM
UO-31 renal
  GI50: 17 µM
  TGI: 44.8 µM
SNB-19 CNS
  GI50: 17 µM
  TGI: 32.5 µM
OVCAR-3 ovarian
  GI50: 18.4 µM
  TGI: 34.7 µM
SF-268 CNS
  GI50: 26 µM
  TGI: 77.6 µM
SF-295 CNS
  GI50: 22.1 µM
  TGI: 51.6 µM
HS 578T breast
  GI50: 25.4 µM
  TGI: 99.6 µM
HCT-15 colon
  GI50: 20.8 µM
  TGI: 43.1 µM
SK-MEL-5 melanoma
  GI50: 20 µM
  TGI: 39.5 µM
HCC-2998 colon
  GI50: 18.5 µM
  TGI: 33.6 µM
NCI-H226 lung
  GI50: 27.9 µM
  TGI: 85.7 µM
MDA-MB-435
  GI50: 22.2 µM
  TGI: 52.2 µM
SK-MEL-28 melanoma
  GI50: 16.2 µM
  TGI: 30.1 µM
MOLT-4 leukemia
  GI50: 26.3 µM
  TGI: 72.3 µM
OVCAR-5 ovarian
  GI50: 18.1 µM
  TGI: 36.6 µM
HOP-92 NSCLC
  GI50: 16.6 µM
  TGI: 42.2 µM
NCI-H23 lung
  GI50: 19.4 µM
  TGI: 37.5 µM
K-562 leukemia
  GI50: 25.8 µM
  TGI: 58.5 µM
TK-10 renal
  GI50: 19.6 µM
  TGI: 45.3 µM
T-47D breast
  GI50: 17.7 µM
  TGI: 40 µM
UACC-257 melanoma
  GI50: 17.7 µM
  TGI: 38.3 µM
